Test results published in the NIST ThermoML archive (doi:10.1021/acs.jced.7b00181).
Numbers after ± are expanded uncertainties.

Details: Liquid, Concentric cylinders viscometry

Row | viscosity (298.15 K, 10000 kPa) [mPa·s] | viscosity (298.15 K, 50000 kPa) [mPa·s] | viscosity (298.15 K, 75000 kPa) [mPa·s] | viscosity (313.15 K, 10000 kPa) [mPa·s] | viscosity (313.15 K, 50000 kPa) [mPa·s] | viscosity (313.15 K, 75000 kPa) [mPa·s] | viscosity (323.15 K, 10000 kPa) [mPa·s] | viscosity (323.15 K, 50000 kPa) [mPa·s] | viscosity (323.15 K, 75000 kPa) [mPa·s] | viscosity (333.15 K, 10000 kPa) [mPa·s] | viscosity (333.15 K, 50000 kPa) [mPa·s] | viscosity (333.15 K, 75000 kPa) [mPa·s] | viscosity (343.15 K, 10000 kPa) [mPa·s] | viscosity (343.15 K, 50000 kPa) [mPa·s] | viscosity (343.15 K, 75000 kPa) [mPa·s] | viscosity (353.15 K, 10000 kPa) [mPa·s] | viscosity (353.15 K, 50000 kPa) [mPa·s] | viscosity (353.15 K, 75000 kPa) [mPa·s] | SMILES
1 | 413 ± 32 | 913 ± 75 | 1417 ± 120 | 189 ± 15 | 401 ± 33 | 615 ± 52 | 114 ± 9 | 223 ± 17 | 364 ± 29 | 78.1 ± 5.7 | 159 ± 12 | 232 ± 18 | 53.5 ± 3.9 | 112 ± 8 | 162 ± 12 | 37.9 ± 2.8 | 76.3 ± 5.6 | 109 ± 8 | CCCCCCCCCCCCCC[P+](CCCCCC)(CCCCCC)CCCCCC.FC(F)(F)C(F)(F)[P-](F)(F)(F)(C(F)(F)C(F)(F)F)C(F)(F)C(F)(F)F
2 | 354 ± 27 | 571 ± 45 | 737 ± 59 | 154 ± 12 | 238 ± 19 | 304 ± 25 | 94 ± 7 | 142 ± 11 | 186 ± 14 | 63.8 ± 4.6 | 94.8 ± 6.9 | 120 ± 9 | 44.5 ± 3.2 | 65.9 ± 4.8 | 82.1 ± 6 | 31.4 ± 2.3 | 46 ± 3.4 | 56.9 ± 4.2 | CCCCCCOS(=O)(=O)[O-].CC[n+]1ccn(C)c1 [3-ethyl-1-methyl-1H-imidazolium hexyl sulfate]
